Several values for one entry are separate records, joined by “and”; a condition that tells them apart may be missing. Equal values may be shown once.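 Test compounds were applied to cells in 96-well plates for 48 hours at 5 doses. GI50: concentration for 50% inhibition of growth. TGI is the concentration that stops growth completely.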

The record followed here is PubChem BioAssay (NCI).

Among the test systems are HOP-18 NSCLC; KM20L2 colon; RXF-631 renal; XF 498 CNS; BT-549 breast; MCF7 breast; MDA-N; NCI/ADR-RES ovarian; P388/ADR leukemia; PC-3 prostate.
Holding throughout (assay): NCI tumour cell line growth inhibition, 48 h

Regarding `COC(=O)C(=O)C(C(=O)C(=O)Nc1cccc(C(C)=O)c1)c1nc2ccccc2[nH]c1=O` (centres undefined), the TGI in the test with HOP-18 NSCLC, in the test with KM20L2 colon and in the test with RXF-631 renal was above 100 µM in each case.

For the compound `CC(=O)NC(CCCCNC(=O)NCCCl)C(=O)NCc1ccccc1` (centres undefined), the TGI in the test on HOP-18 NSCLC, in the test on KM20L2 colon, with RXF-631 renal and in the test with XF 498 CNS was above 100 µM throughout.

As to `OC1(c2ccccc2)OC(C#Cc2ccccc2)(c2ccccc2)c2ccccc21` (centres undefined), the values for the TGI in the test on KM20L2 colon, in the test with RXF-631 renal and in the test on XF 498 CNS were 13.6 µM, 13.3 µM and 19.8 µM, respectively.

Consider `COC(=O)[C@]12CCC(C)[C@H](C)[C@H]1C1=CCC3[C@@]4(C)CC[C@H](OC(C)=O)C(C)(C)C4CC[C@@]3(C)C1(C)C(O)C2` (some centres undefined), for which the TGI with HOP-18 NSCLC, with KM20L2 colon and with XF 498 CNS was above 100 µM in each case.

As to `O=[N+]([O-])c1cnn(C2=CNc3ccccc3N=C2)c1`, the TGI with HOP-18 NSCLC, in the test with KM20L2 colon, with RXF-631 renal and in the test on XF 498 CNS was above 100 µM throughout.

For the compound `COC1C2C=CC(C2)[C@H]1[N+](=O)[O-]` (some centres undefined), the TGI with KM20L2 colon and in the test with RXF-631 renal was above 100 µM each time.

As to `CN(C)/N=C(/c1nc2ccc(Cl)cc2[nH]c1=O)C(O)c1ccc(C(O)/C(=N\N(C)C)c2nc3ccc(Cl)cc3[nH]c2=O)cc1` (centres undefined), the TGI in the test on KM20L2 colon and with RXF-631 renal was above 100 µM in each case.

For the compound `Cc1ccc(-c2cc(-c3ccccc3)c(C#N)c(=O)n2C2OC(CO)C(O)C(O)C2O)cc1` (centres undefined), the TGI with HOP-18 NSCLC, in the test with KM20L2 colon and with RXF-631 renal was above 100 µM in each case.

On to `CCC1=NC(CO)[C@H](c2ccccc2)O1` (some centres undefined), for which the TGI with HOP-18 NSCLC, in the test with KM20L2 colon and with XF 498 CNS was above 100 µM throughout.

Consider `CN1CC[C@]2(C)c3ccc(O)cc3CC3CCCC1C32C` (some centres undefined), for which the TGI in the test with HOP-18 NSCLC, in the test with KM20L2 colon, in the test with RXF-631 renal and in the test on XF 498 CNS was above 100 µM each time.

As to `CC1=C(C(=O)Nc2cccc(Cl)c2)C(c2ccccc2F)C(C(=O)Nc2cccc(Cl)c2)=C(C)N1`, the figures for the TGI with KM20L2 colon and in the test with RXF-631 renal were 24.3 µM and 22.6 µM, respectively.

Consider `Cc1ccc(-c2cc(-c3ccco3)c(C#N)c(=O)n2C2OC(OC(=O)c3ccccc3)C(OC(=O)c3ccccc3)C2OC(=O)c2ccccc2)cc1` (centres undefined), for which the TGI with HOP-18 NSCLC, in the test on KM20L2 colon and with RXF-631 renal was above 100 µM throughout.

As to `CS(=O)(=O)CSCSSCS(C)(=O)=O`, the TGI with HOP-18 NSCLC was above 100 µM; in the test with KM20L2 colon it was above 100 µM; in the test on RXF-631 renal, above 100 µM; in the test on XF 498 CNS, 75.6 µM.

As to `COC1OC(CO)C(O)C1N` (centres undefined), the TGI in the test with HOP-18 NSCLC, in the test with KM20L2 colon and with RXF-631 renal was above 100 µM in each case.

On to `CCCCN(CCCC)c1c([N+](=O)[O-])c(=O)nc2ccccn12`, for which the values for the TGI in the test with KM20L2 colon, in the test with RXF-631 renal and in the test on XF 498 CNS were above 100 µM, 79.8 µM and 79.6 µM, respectively.

Turning to `C[C@]12CCCC(=O)C1(O)C[C@H](C(=O)O)CC2` (some centres undefined), the TGI in the test on HOP-18 NSCLC, in the test on KM20L2 colon, with RXF-631 renal and in the test on XF 498 CNS was above 100 µM each time.

For the compound `C/C=C1\NC(=O)[C@H]2CSSCCC=C[C@H](CC(=O)N[C@H](C(C)C)C(=O)N2)OC(=O)[C@H](C(C)C)NC1=O`, the GI50 in the test on BT-549 breast was < 10 nM and 0.0646 nM and < 11.1 nM; with MCF7 breast, below 0.01 µM; in the test with NCI/ADR-RES ovarian it was 1.98 µM and 0.676 µM; in the test with PC-3 prostate it was below 0.01 µM. For the same compound, the TGI in the test with HOP-18 NSCLC is 0.054 µM and 0.0719 µM; with KM20L2 colon, 0.00796 µM; with MCF7 breast, 0.0148 µM and 0.00981 µM and 0.0352 µM; in the test with MDA-N, 0.0176 µM and < 0.0319 µM; with NCI/ADR-RES ovarian it was 27.7 µM and 11.2 µM; with P388/ADR leukemia, 0.125 µM. Also, the TGI in the test with XF 498 CNS is 0.0155 µM and 0.0624 µM.

As to `Cc1cc(C)c(C(=O)c2no[n+]([O-])c2C(=O)c2c(C)cc(C)c(Br)c2C)c(C)c1Br`, the TGI with KM20L2 colon came to 32.9 µM; with RXF-631 renal, 35.7 µM.

For `CC[C@]1(O)C(=O)OCc2c1cc1n(c2=O)Cc2cc3c(N)cccc3nc2-1`, the TGI in the test with HOP-18 NSCLC, with KM20L2 colon, with RXF-631 renal and in the test with XF 498 CNS was above 100 µM in each case.

Regarding `CCOC(=O)c1s/c(=N\Nc2nc3ccccc3cc2C2OCCO2)n(Cc2ccccc2)c1C`, the TGI in the test on HOP-18 NSCLC, with KM20L2 colon, with RXF-631 renal and in the test with XF 498 CNS was above 100 µM each time.

With `N#CCCN(CCC#N)c1ccc(C(Sc2ccccc2)C(NC(=O)c2cc([N+](=O)[O-])ccc2Cl)C(=O)Sc2ccccc2)cc1` (centres undefined), the TGI is 47.3 µM with HOP-18 NSCLC; 6.47 µM and 11.3 µM in the test with KM20L2 colon; 4.01 µM in the test with RXF-631 renal; 21.3 µM in the test on XF 498 CNS. The GI50 in the test with RXF-631 renal was 1.53 µM.

For `Cc1ccccc1C1=C(C(=O)Nc2ccc(Cl)c(Cl)c2)NC(=S)NC1N` (centres undefined), the TGI with HOP-18 NSCLC, in the test on KM20L2 colon, in the test with RXF-631 renal and in the test with XF 498 CNS was above 100 µM each time.

Consider `COC(=O)c1ccccc1NC(=O)C(=O)NNC(=O)c1ccncc1`, for which the TGI in the test with HOP-18 NSCLC, in the test with KM20L2 colon, in the test on RXF-631 renal and in the test with XF 498 CNS was above 100 µM in each case.

Regarding `COc1ccc(/C=C\c2cc(OC)c(O[Si](C)(C)C(C)(C)C)c(OC)c2)cc1`, the TGI with KM20L2 colon was above 100 µM; with RXF-631 renal, above 100 µM; with XF 498 CNS, 49.5 µM.

For `O=C(c1ccncc1)n1nc(-c2ccccc2)c(N=Nc2ccccc2[N+](=O)[O-])c1-c1ccccc1`, the TGI in the test on RXF-631 renal and in the test with XF 498 CNS was above 100 µM in each case.
